In patent US11679111B2, “Fatty acid synthase inhibitors” (priority 2016, dated 2023):
Where two headings read alike, the source gives them in different places.

Key:
[1] = Protocol: To test if HS-106 is toxic to mice, two animal studies were initiated. In an acute toxicity study, mice received 80, 20, or 5 mg/kg HS-106 IP on day 1 and 3, and blood was collected on day 4.
In an acute toxicity study, FVB/J mice received 10, 40, or 160 pmol/kg HS-106 via intraperitoneal injection (IP) on days 1 and 3, and blood was collected on day 4. […] To test for the long term effects of HS-106, mice received biweekly IP injections of 10, 20, or 30 pmol/kg HS-106 for eight weeks. […] Next, we carried out pharmacokinetic (PK) studies to determine the uptake and bio-distribution of HS-106 in MMTV-Neu mice by LC-MS (FIG. 17).
Female FVB/J mice aged to 10-12 weeks (Jackson Labs, Maine) were intraperitonealy injected with HS-106 at the described doses twice weekly. Mice were monitored for signs of toxicity by standard Mouse Phase 1 Unit (MP1U; https://www.med.unc.edu/mousephase1) protocols and approved by UNC—CH IACUC. Prior to end of the study 150 μl of whole blood was drawn via submandibular bleed and used to determine hematology values, liver, and kidney functions. To determine the long term effects of HS-106 on mice weight, female FVB/J mice aged 12-16 weeks were treated with the indicated concentrations of HS-106 twice weekly by intraperitoneal injection for 60 days. Mice body mass was assessed weekly and were observed every day for signs of toxicity such as labored breathing and hunched posture.
Female FVB/J mice aged to 10-12 weeks (Jackson Labs, Maine) were intraperitonealy (IP) injected twice weekly with HS-106 at the described doses. Mice were monitored for signs of toxicity by standard Mouse Phase 1 Unit (M1P1U; https://www.med.unc.edu/mousephase1) protocols and approved by UNC—CH IACUC. Prior to end of the study 150 μl of whole blood was drawn via submandibular bleed and used to determine hematology values, liver, and kidney functions by HemaTrue Hematology Analyzer (HESKA, Loveland, Colo., USA) and VITROS® 350 Chemistry System (J&J, New Brunswick, N.J.) according to manufacturer protocols. To determine the long term effects of HS-106 on mice weight, female FVB/J mice aged 12-16 weeks were treated with the indicated concentrations of HS-106 twice weekly by IP injection for 60 days. Mice body mass was assessed weekly, and mice were observed daily for signs of toxicity (e.g. labored breathing and hunched posture).

FASN = target: T1, FASN (Sus scrofa, UniProt A5YV76); experiment: FLECS screen, elution of fluorescein labeled proteins from Cibacron blue resin; format: binding, porcine; conditions: SDS-PAGE and mass spectrometry
T1 construct: from tissue; host or cells: lactating porcine mammary gland extract
Excerpt: To specifically identify inhibitors of FASN targeting its nucleotide binding pockets Cibacron blue Sepharose was utilized. This medium has been used previously to purify NAD and NADP binding proteins from crude tissues extracts (Miyaguchi et al., 2011; Muratsubaki et al., 1994). FASN enriched extract from lactating pig mammary gland was bound to the resin and labeled with cysteine reactive fluorescein. […] One hundred and fifty-five of the molecules selectively eluted FASN from the resin, and 20 potential lead compounds were progressed according to their FASN selectivity (assessed with SDS-PAGE, silver staining and mass spectrometry). These twenty compounds were reduced to 13 based on the absence of any obvious chemical liabilities. Next, the molecules were tested for their ability to inhibit FASN activity in a HepG2 cell based assay that measured the incorporation of ^3H glucose into lipids (FIG. 1B and FIG. 9).
Porcine mammary glands were collected from lactating pigs as previously described (Hughes et al., 2012). Tissues were homogenized in lysis buffer A (100 mM sodium fluoride, 5 mM EDTA, 1 mM DTT and 5% glycerol made in 10 mM sodium phosphate buffer pH 7.5) in a ratio of 3 ml of buffer per each gram of tissue. […] Fluorescence in each well was measured at Ex/Em: 485/535 nm. […]

HIV-1 = experiment: HIV/TZM-bl assay, extracellular p24 ELISA; format: cell-based
Protocol: HS-106 or C75 were dissolved in DMSO to achieve 10 mM stock concentration. The stock solution of each drug was serially diluted 3-fold with DMSO and 2 μL of each dilution was added to each well to achieve final concentration range from 10 μM to 4.6 nM fixing final [DMSO] at 1%. HIVNL4.3 was added to 3×10^4 TZM-bl cells at 10 ng/ml p24 equivalents in the presence of 15 μg/mL DEAE dextran. HIV-infected cells were incubated at 37° C. in 5% CO2 for 24 hours, washed with PBS, fresh media was added, and cell were incubated for another 24 hours. Supernatants were collected and stored at −80° C. until P24 ELISA assay. HIV-1 replication was assessed by quantitative p24 ELISA. Nevirapine (positive control) was obtained from the AIDS Reagent Repository and was used at […].

T1 sequence (A5YV76 entry or part of it): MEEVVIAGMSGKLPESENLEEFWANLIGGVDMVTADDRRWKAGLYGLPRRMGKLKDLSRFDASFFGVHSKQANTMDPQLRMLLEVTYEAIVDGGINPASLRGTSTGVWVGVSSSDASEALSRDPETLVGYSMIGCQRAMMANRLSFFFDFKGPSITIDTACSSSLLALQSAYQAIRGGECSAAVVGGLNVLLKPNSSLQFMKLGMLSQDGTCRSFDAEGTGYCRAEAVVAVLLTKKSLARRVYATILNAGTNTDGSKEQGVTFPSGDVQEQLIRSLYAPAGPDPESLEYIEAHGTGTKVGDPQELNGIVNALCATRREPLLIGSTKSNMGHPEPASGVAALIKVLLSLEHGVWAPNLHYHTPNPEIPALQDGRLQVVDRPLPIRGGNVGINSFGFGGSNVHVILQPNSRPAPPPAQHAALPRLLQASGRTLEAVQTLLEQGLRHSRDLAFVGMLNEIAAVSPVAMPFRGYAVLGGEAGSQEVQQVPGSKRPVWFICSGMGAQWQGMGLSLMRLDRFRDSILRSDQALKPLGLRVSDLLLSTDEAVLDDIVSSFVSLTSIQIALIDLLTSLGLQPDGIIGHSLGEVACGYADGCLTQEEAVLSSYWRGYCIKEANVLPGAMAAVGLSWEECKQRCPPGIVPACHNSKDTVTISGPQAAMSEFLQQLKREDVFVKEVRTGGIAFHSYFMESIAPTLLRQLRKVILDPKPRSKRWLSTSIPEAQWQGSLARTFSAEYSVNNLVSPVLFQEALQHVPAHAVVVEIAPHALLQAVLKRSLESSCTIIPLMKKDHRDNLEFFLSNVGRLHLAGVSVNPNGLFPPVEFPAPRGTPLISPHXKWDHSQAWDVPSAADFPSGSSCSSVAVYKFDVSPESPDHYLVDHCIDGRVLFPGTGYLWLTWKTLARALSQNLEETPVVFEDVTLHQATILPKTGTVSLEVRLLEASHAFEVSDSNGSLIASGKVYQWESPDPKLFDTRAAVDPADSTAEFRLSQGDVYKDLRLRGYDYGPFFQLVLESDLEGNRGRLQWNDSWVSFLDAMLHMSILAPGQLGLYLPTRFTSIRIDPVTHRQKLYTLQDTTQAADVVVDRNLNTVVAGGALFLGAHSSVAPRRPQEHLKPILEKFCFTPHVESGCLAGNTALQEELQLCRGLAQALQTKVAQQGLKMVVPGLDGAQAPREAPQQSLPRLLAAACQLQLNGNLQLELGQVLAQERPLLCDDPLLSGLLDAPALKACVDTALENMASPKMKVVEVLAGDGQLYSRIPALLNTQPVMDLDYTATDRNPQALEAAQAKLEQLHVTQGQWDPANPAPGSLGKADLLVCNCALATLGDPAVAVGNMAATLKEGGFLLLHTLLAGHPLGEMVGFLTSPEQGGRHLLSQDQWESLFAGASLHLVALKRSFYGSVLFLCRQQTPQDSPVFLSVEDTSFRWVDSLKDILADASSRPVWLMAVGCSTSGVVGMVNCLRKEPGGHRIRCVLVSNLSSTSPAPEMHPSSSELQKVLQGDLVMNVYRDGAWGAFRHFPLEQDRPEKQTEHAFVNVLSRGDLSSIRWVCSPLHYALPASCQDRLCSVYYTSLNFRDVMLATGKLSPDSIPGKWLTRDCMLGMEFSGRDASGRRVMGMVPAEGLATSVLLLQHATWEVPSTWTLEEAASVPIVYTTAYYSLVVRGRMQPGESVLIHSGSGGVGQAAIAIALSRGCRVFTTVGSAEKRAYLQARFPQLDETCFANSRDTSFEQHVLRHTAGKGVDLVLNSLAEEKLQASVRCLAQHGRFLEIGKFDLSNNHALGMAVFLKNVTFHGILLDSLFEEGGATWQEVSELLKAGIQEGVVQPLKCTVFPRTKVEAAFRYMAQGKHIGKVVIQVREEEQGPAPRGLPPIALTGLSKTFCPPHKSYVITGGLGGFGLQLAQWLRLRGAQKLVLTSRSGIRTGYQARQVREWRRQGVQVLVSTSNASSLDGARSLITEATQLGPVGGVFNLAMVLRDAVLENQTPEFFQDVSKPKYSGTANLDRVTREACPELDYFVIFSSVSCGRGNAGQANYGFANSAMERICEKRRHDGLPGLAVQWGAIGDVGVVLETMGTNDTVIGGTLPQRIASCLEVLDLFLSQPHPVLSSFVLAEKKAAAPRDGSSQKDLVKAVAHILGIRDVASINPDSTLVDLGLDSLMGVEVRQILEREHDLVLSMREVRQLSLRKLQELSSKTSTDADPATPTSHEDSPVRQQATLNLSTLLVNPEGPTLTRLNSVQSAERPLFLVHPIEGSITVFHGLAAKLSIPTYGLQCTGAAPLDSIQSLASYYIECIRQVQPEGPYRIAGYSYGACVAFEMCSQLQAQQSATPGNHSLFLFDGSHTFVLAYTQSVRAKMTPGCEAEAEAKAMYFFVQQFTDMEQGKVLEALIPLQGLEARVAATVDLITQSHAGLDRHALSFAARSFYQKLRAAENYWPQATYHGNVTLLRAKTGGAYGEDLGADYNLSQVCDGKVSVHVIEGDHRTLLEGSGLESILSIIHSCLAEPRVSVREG

**Q.** What does the source list for `Cc1sc2ncnc(NC3CCN(Cc4ccccc4)C3)c2c1C` (racemic) [HS-106, N-(1-benzylpyrrolidin-3-yI)-5,6-dimethylthieno[2,3-d]pyrimidin-4-amine]?
**A.** acute toxicity ([1]; 160 pmol/kg IP days 1 and 3): toxic; acute toxicity ([1]; 80 mg/kg IP day 1 and 3): acutely toxic; acute toxicity, blood parameters ([1]; 5 and 20 mg/kg IP day 1 and 3, blood day 4): did not affect white blood cell count, hemoglobin levels, kidney, or liver function; acute toxicity, blood parameters ([1]; 10 and 40 pmol/kg IP days 1 and 3, blood day 4): well tolerated with no adverse effects on white blood cell counts, hemoglobin levels, kidney, or liver functions; weight change ([1]; BIW IP injection, assessed weekly): dose not induce weight change; elution of FASN from Cibacron blue resin (hit strength / selectivity) (FASN): selectively elutes FASN; EC50 (HIV-1; Human immunodeficiency virus 1, TZM-bl cells, 48 hours post infection, read-out: EC50, HIV-1 p24 production): 213 nM; antiviral index (TC50/EC50) (HIV-1; TZM-bl model): 47
